Read-outs that look alike come from different tables or passages of the source.
Legend:
recombinant BRD4 BD1 = biological target: T1, recombinant BRD4 BD1 (Homo sapiens, UniProt O60885); assay: Competitive fluorescence-polarization (FP) binding assay, BRD4 BD1; settings: for Ki: read-out: Binding affinities (FP) BRD4BD1 Ki; as to IC50 (nM) BRD4 BD1: probe 1.5 nM
T1 construct: for recombinant BRD4 BD1 and BRD4 BD2 proteins
Summary of the method: (§1)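 Buffer: 100 mM potassium phosphate, pH 6.5, 0.01% Triton X-100; compounds added in buffer with 40% ethylene glycol to preformed complex of fluorescent probe with BRD4 BD1 (10 nM final) or BD2 (6 nM final). After 30 min at room temperature, polarization read. IC50 from nonlinear fits of competition curves, with Ki.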

recombinant BRD4 BD2 = biological target: T2, recombinant BRD4 BD2 (Homo sapiens, UniProt O60885); assay: Competitive fluorescence-polarization (FP) binding assay, BRD4 BD2; settings: for Ki: read-out: Binding affinities (FP) BRD4BD2 Ki; as to IC50 (nM) BRD4 BD2: probe 1.5 nM
T2 construct: for recombinant BRD4 BD1 and BRD4 BD2 proteins
Summary of the method: as §1

MDA-MB-436 = assay: Cell growth inhibition, MDA-MB-436 breast cancer cells (WST-8); assay type: cell-based; settings: Homo sapiens, 4 days
Summary of the method: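 IC50 was computed from WST-8-based cell counting in MDA-MB-436 cells, with absorbance read at 450 nm.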

LNCaP = assay: Cell growth inhibition, LNCaP prostate cancer cells (Cell-Titer GLO); assay type: cell-based; settings: Homo sapiens, read-out: Cellular data LNCaP IC50
MOLM-13 = assay: Cell growth inhibition, MOLM-13 leukemia cells (CellTiter-Glo); assay type: cell-based; settings: Homo sapiens, MOLM-13, 96 h; 4 days; read-out: IC50 (nM) MOLM-13 Cell Line (CellTiter-Glo assay)
Summary of the method: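 Luminescent ATP-based viability (CellTiter-Glo, 10-20 min at room temperature) in compound-treated MOLM-13 cells; the half-maximal inhibitory concentration was calculated from the readout.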

[1] = test system: VCaP prostate cancer cells; assay: Cell growth inhibition, VCaP prostate cancer cells (Cell-Titer GLO); assay type: cell-based; settings: Homo sapiens, VCaP; 96 h incubation; read-out: IC50 (nM) VCaP Cell Line (CellTiter-Glo assay)
Method: For prostate cancer cell lines, VCaP prostate cancer cells were grown in DMEM with Glutamax (Gibco) supplemented with 10% FBS (Invitrogen) in 5% CO2 cell culture incubator. All cell lines were tested and found to be free of mycoplasma contamination. Cells were seeded in 96-well plates at 2,000-10,000 cells per well (optimum density for growth) in a total volume of […] media containing 10% FBS. Serially diluted compounds in […] media were added to the cells 12 h later. […] The values were normalized and IC50 was calculated using GraphPad Prism software.
Cells were seeded in 96-well plates at 2000-10,000 cells/well (optimum density for growth) in a total volume of 100 μl media containing 10% FBS. Serially diluted compounds in 100 μl media were added to the cells 12 h later. Following 96 h. incubation, cell viability was assessed by Cell-Titer GLO (Promega). The values were normalized and IC50 was calculated using GraphPad Prism software. […] After 12 days cells were fixed with methanol, stained with crystal violet and photographed. For colorimetric assays, the stained wells were treated with 500 μl 10% acetic acid and the absorbance was measured at 560 nm using a spectrophotometer.

[2] = FP competitive binding, BRD4 BD1, read-out: Binding affinities (FP) BRD4BD1 IC50
[3] = FP competitive binding, BRD4 BD1
[4] = FP competitive binding, BRD4 BD2, read-out: Binding affinities (FP) BRD4BD2 IC50
[5] = FP competitive binding, BRD4 BD2
[6] = 96 h, MDA-MB-436 cells, read-out: Cellular data MDA-MB-436 IC50
[7] = competitive FP assay, protein 10 nM, probe […], read-out: IC50 (nM) BRD4 BD1
[8] = competitive FP assay, protein 6 nM, probe […], read-out: IC50 (nM) BRD4 BD2
[9] = MDA-MB-436, 96 h, read-out: IC50 (nM) MDA-MB-436 Cell Line (WST assay)

| Compound | IC50 (recombinant BRD4 BD1; [2]) [nM] | Ki (recombinant BRD4 BD1; [3]) [µM] | IC50 (recombinant BRD4 BD2; [4]) [nM] | Ki (recombinant BRD4 BD2; [5]) [µM] | IC50 (MDA-MB-436; [6]) [nM] | IC50 (LNCaP) [µM] | IC50 (recombinant BRD4 BD1; [7]) [nM] | IC50 (recombinant BRD4 BD2; [8]) [nM] | IC50 (MOLM-13) [nM] | IC50 (MDA-MB-436; [9]) [nM] | IC50 [1] [nM] |
| --- | --- | --- | --- | --- | --- | --- | --- | --- | --- | --- | --- |
| COCCc1nc(Nc2cc(C3CC3)nn2C)c2c(n1)[nH]c1cc(-c3c(C)noc3C)c(OC)cc12 [Cpd. No. 287, N-(3-cyclopropyl-1-methyl-1H-pyrazol-5-yl)-7-(3,5-dimethylisoxazol-4-yl)-6-methoxy-2-(2-methoxyethyl)-9H-pyrimido[4,5-b]indol-4-amine] | 3.1 | < 0.001 | 1.4 | < 0.001 | 58 | 0.081 | – | – | – | – | – |
| COc1nc2c(cc1-c1c(C)noc1C)[nH]c1nc(C)nc(Nc3cc(C4CC4)nn3C)c12 [compound 322, N-(3-cyclopropyl-1-methyl-1H-pyrazol-5-yl)-7-(3,5-dimethylisoxazol-4-yl)-6-methoxy-2-methyl-9H-pyrido[2′,3′:4,5]pyrrolo[2,3-d] pyrimidin-4-amine] | 199 | 0.068 | 214 | 0.067 | 646 | 0.674 | – | – | – | – | – |
| COc1cc2c(cc1-c1c(C)noc1C)[nH]c1nc(C)nc(Nc3cc(C4CC4)nn3CCN3CCOCC3)c12 [Cpd. No. 284, N-(3-cyclopropyl-1-(2-morpholinoethyl)-1H-pyrazol-5-yl)-7-(3,5-dimethylisoxazol-4-yl)-6-methoxy-2-methyl-9H-pyrimido[4,5-b]indol-4-amine] | 10 | 0.003 | 10.6 | 0.0026 | 268 | 0.105 | – | – | – | – | – |
| COc1cc2c(cc1-c1c(C)noc1C)[nH]c1nc(C)nc(Nc3cc(C4CC4)nn3C[C@H](O)CO)c12 [Cpd. No. 281] | 6.1 | 0.002 | 3.6 | 0.0057 | 351 | 0.116 | – | – | – | – | – |
| CCn1nc(C2CC2)cc1Nc1nc(C)nc2[nH]c3cc(-c4c(C)noc4C)c(OC)cc3c12 [Cpd. No. 144, N-(3-Cyclopropyl-1-ethyl-1H-pyrazol-5-yl)-7-(3,5-dimethylisoxazol-4-yl)-6-methoxy-2-methyl-9H-pyrimido[4,5-b]indol-4-amine] | – | – | – | – | – | – | 2.1 | 0.7 | 3 | 14.5 | 53.8 |
| CCn1nc2c(c1Nc1nc(C)nc3[nH]c4cc(-c5c(C)noc5C)c(OC)cc4c13)CCC2 [Cpd. No. 141, 7-(3,5-Dimethylisoxazol-4-yl)-N-(2-ethyl-2,4,5,6-tetrahydrocyclopenta[c]pyrazol-3-yl)-6-methoxy-2-methyl-9H-pyrimido[4,5-b]indol-4-amine] | – | – | – | – | – | – | 4.6 | 1.1 | 1.6 | 13.6 | 19.3 |
| COc1cc2c([nH]c3nc(C)nc(Nc4cc(C5CC5)nn4C)c32)c(F)c1-c1c(C)noc1C [Cpd. No. 307, N-(3-cyclopropyl-1-methyl-1H-pyrazol-5-yl)-7-(3,5-dimethylisoxazol-4-yl)-8-fluoro-6-methoxy-2-methyl-9H-pyrimido[4,5-b]indol-4-amine] | 16 | 0.0038 | 18 | 0.0043 | 130 | 0.059 | – | – | – | – | – |
| COc1cc2c(cc1-c1c(C)noc1C)[nH]c1cncc(Nc3cc(C4CC4)nn3C)c12 [Cpd. No. 323, N-(3-Cyclopropyl-1-methyl-1H-pyrazol-5-yl)-7-(3,5-dimethylisoxazol-4-yl)-6-methoxy-9H-pyrido[3,4-b]indol-4-amine] | 11.8 | 0.0016 | 5.9 | 0.0012 | 15 | 0.021 | – | – | – | – | – |

The next lines start with the values.

| IC50 (recombinant BRD4 BD1; [2]) [nM] | Ki (recombinant BRD4 BD1; [3]) [µM] | IC50 (recombinant BRD4 BD2; [4]) [nM] | Ki (recombinant BRD4 BD2; [5]) [µM] | IC50 (MDA-MB-436; [6]) [nM] | IC50 (LNCaP) [µM] | IC50 (recombinant BRD4 BD1; [7]) [nM] | IC50 (recombinant BRD4 BD2; [8]) [nM] | IC50 (MOLM-13) [nM] | IC50 (MDA-MB-436; [9]) [nM] | IC50 [1] [nM] | Compound |
| --- | --- | --- | --- | --- | --- | --- | --- | --- | --- | --- | --- |
| 129 | 0.03 | 43 | 0.01 | 67 | 0.534 | – | – | – | – | – | COc1c(-c2c(C)noc2C)cc2[nH]c3nc(C)nc(N(C)c4cc(C5CC5)nn4C)c3c2c1F [Cpd. No. 306, N-(3-cyclopropyl-1-methyl-1H-pyrazol-5-yl)-7-(3,5-dimethylisoxazol-4-yl)-5-fluoro-6-methoxy-N,2-dimethyl-9H-pyrimido[4,5-b]indol-4-amine] |
| 18 | 0.0041 | 40 | 0.013 | 141 | 0.136 | – | – | – | – | – | COc1cc2c([nH]c3ccnc(Nc4cc(C5CC5)nn4C)c32)c(F)c1-c1c(C)noc1C [Cpd. No. 309, N-(3-cyclopropyl-1-methyl-1H-pyrazol-5-yl)-7-(3,5-dimethylisoxazol-4-yl)-6-fluoro-8-methoxy-5H-pyrido[4,3-b]indol-1-amine] |
| – | – | – | – | – | – | 4.5 | 1.2 | 4.3 | 11.3 | 23.4 | COc1cc2c(cc1-c1c(C)noc1C)[nH]c1nc(C)nc(Nc3c4c(nn3C(C)C)CCC4)c12 [Cpd. No. 137, 7-(3,5-Dimethylisoxazol-4-yl)-N-(2-isopropyl-2,4,5,6-tetrahydrocyclopenta[c]pyrazol-3-yl)-6-methoxy-2-methyl-9H-pyrimido[4,5-b]indol-4-amine] |
| 23 | 0.005 | 25 | 0.0053 | 181 | 0.106 | – | – | – | – | – | COc1cc2c([nH]c3nc(C)nc(N(C)c4cc(C5CC5)nn4C)c32)c(F)c1-c1c(C)noc1C [Cpd. No. 308, N-(3-cyclopropyl-1-methyl-1H-pyrazol-5-yl)-7-(3,5-dimethylisoxazol-4-yl)-8-fluoro-6-methoxy-N,2-dimethyl-9H-pyrimido[4,5-b]indol-4-amine] |
| – | – | – | – | – | – | 4.9 | 12.3 | 17 | 71 | 64.7 | COc1cc2c(cc1-c1c(C)noc1C)[nH]c1nc(C)nc(Nc3c(C)c(C)nn3C(C)(C)C)c12 [Cpd. No. 185, N-(1-(tert-butyl)-3,4-dimethyl-1H-pyrazol-5-yl)-7-(3,5-dimethylisoxazol-4-yl)-6-methoxy-2-methyl-9H-pyrimido[4,5-b]indol-4-amine] |
| 4.9 | < 0.001 | 1.6 | < 0.001 | 13 | 0.037 | – | – | – | – | – | COCCOCc1nc(Nc2cc(C3CC3)nn2C)c2c(n1)[nH]c1cc(-c3c(C)noc3C)c(OC)cc12 [Cpd. No. 288, N-(3-cyclopropyl-1-methyl-1H-pyrazol-5-yl)-7-(3,5-dimethylisoxazol-4-yl)-6-methoxy-2-((2-methoxyethoxy)methyl)-9H-pyrimido[4,5-b]indol-4-amine] |
| 4.5 | 0.0006 | 5 | 0.0009 | 19 | 0.012 | – | – | – | – | – | COc1cc2c(cc1-c1c(C)noc1C)[nH]c1nc(C)nc(Nc3cc(C4CC4)nn3C3CCOCC3)c12 [Cpd. No. 283, N-(3-cyclopropyl-1-(tetrahydro-2H-pyran-4-yl)-1H-pyrazol-5-yl)-7-(3,5-dimethylisoxazol-4-yl)-6-methoxy-2-methyl-9H-pyrimido[4,5-b]indol-4-amine] |
| 2.4 | < 0.001 | 2.2 | < 0.001 | 57 | 0.13 | – | – | – | – | – | COc1cc2c(cc1-c1c(C)noc1C)[nH]c1nc(CS(C)(=O)=O)nc(Nc3cc(C4CC4)nn3C)c12 [Cpd. No. 289, N-(3-cyclopropyl-1-methyl-1H-pyrazol-5-yl)-7-(3,5-dimethylisoxazol-4-yl)-6-methoxy-2-((methylsulfonyl)methyl)-9H-pyrimido[4,5-b]indol-4-amine] |
| 6.1 | 0.0013 | 0.5 | 0.001 | 33 | 0.022 | – | – | – | – | – | COc1cc2c(cc1-c1c(C)noc1C)[nH]c1nc(C)nc(Nc3cc(C4CC4)nn3CC3COCCO3)c12 (centres unmarked) [Cpd. No. 282, N-(1-((1,4-dioxan-2-yl)methyl)-3-cyclopropyl-1H-pyrazol-5-yl)-7-(3,5-dimethylisoxazol-4-yl)-6-methoxy-2-methyl-9H-pyrimido[4,5-b]indol-4-amine] |
